Assay [1] deals with C57B/6 male mice. The assay can be described thus: Passive (inhibitory) avoidance task. It is filed as in vivo. Particulars: for Training latency Day 0 (latency to enter the dark/shock compartment): Day 0 is pre-treatment, N = 6/group; for Training latency Day 0 (latency to enter the dark/shock compartment) / Testing latency Day 1 (latency to enter the dark/shock compartment) / Testing latency Day 4 (latency to enter the dark/shock compartment) / Testing latency Day 7 (latency to enter the dark/shock compartment): in s; for Testing latency Day 1 (latency to enter the dark/shock compartment) / Testing latency Day 4 (latency to enter the dark/shock compartment) / Testing latency Day 7 (latency to enter the dark/shock compartment): max trial 180 sec; for memory for the shock-associated environment: IP post-training injections, young mice, versus vehicle. The text has this: (§1) The passive avoidance task exploits the tendency for rodents to avoid environments previously associated with an aversive stimulus (e.g. shock) and is therefore a reliable measure of emotional memory. The Morris water maze (MWM) task, a test of spatial learning and memory, requires that the animal learns the spatial locations of various extra-maze cues in order to accurately locate an escape platform that is hidden beneath the surface of the water in a water tank.
Table 2, below, indicates the effects of compounds of the invention in a passive avoidance task (latency to enter the dark/shock compartment as dependent variable). Data were analyzed with One-Way ANOVAs followed by Bonferroni-corrected post-hoc measures (required P value dependent upon number of comparisons). The table below includes data from Vehicle-treated mice and mice treated with Compound A and Compound B.
All treatments were administered IP immediately post-training.
Passive Inhibitory Avoidance
C57B/6 male mice (20-25 g; n=6-8/group) were used in this study.
One Day 0, animals were individually placed in the bright side of a 2-chambered inhibitory avoidance box. Mice were given 35 seconds to acclimate after which a door between the two compartments was lifted and the animals were allowed to cross over into the dark compartment. Once they crossed over, the gate would close and the animal would receive a mild (0.15 mA, 2 sec) footshock. Memory retention for the shock-associated environment was evaluated 24 hours (Day 1), 4 (Day 4) and 7 (Day 7) days later. On each of the three memory retention tests (Days 1, 4, and 7), the mouse was given 15 seconds to acclimate before the gate was lifted. Latency to enter the dark (shock) compartment was measured and considered an index of passive fear avoidance. Maximum trial length=180 sec.

Assay [2] concerns aged rats. The assay can be described thus: Morris water maze task. It is filed as in vivo.
Text: as §1
Table 3, below, indicates the effects of Compound C in the Morris water maze task (mean escape latencies across testing days are shown).
Data were analyzed with a Mann-Whitney U Test. Mean escape latency indicates the group mean over three sessions to escape onto the hidden platform. Data are shown for days 7-11 (the water maze training days); animals were dosed twice daily (PO) with 10 mg/kg Compound No. 1 or vehicle (as indicated) on Days 1-6 prior to water maze training.
The Morris Maze consisted of a circular water tank (150 cm in diameter) filled with water and maintained at 27° C. with an escape platform (15 cm in diameter) 18 cm from the perimeter always in the same position 2 cm beneath the surface of the water. The water was made opaque by addition of a non-toxic coloring agent rendering the platform invisible. The testing was performed under light of moderate intensity.
The animals were given 5 training sessions over 5 consecutive days. Each training session consisted of 3 consecutive trials in the Morris Maze separated by 120 seconds. For each trial the animal was placed in the maze at one of two starting points equidistant from the escape platform and allowed to find the escape platform. The animal was left on the escape platform for 60 seconds followed by a 60-second rest in an individual cage before starting a new trial. […] During the 3 trials the animals started the maze from the different starting points in a randomly determined order per animal.
The trials were video-recorded and the behavior of the animals was analyzed using a video-tracking system (Panlab: Smart). The principal measure taken was the escape latency (time to find the hidden platform) at each trial. Additional measures (path length (distance traveled to find the hidden platform) and average speed) were also measured.
Aged animals show amnesia in this task as indicated by a lower capacity to reduce their escape latencies from trial to trial.
15 aged rats were studied per group. The experiment also included a young control group. The test was performed blind.
Compound C was evaluated at the dose of 10 mg/kg, administered p.o., and compared with a vehicle control group. The animals received the assigned treatment twice daily for 6 days prior to water-maze training. Twice daily administration continued during training, with one administration 60 minutes before each training session and the second administration between either 8.30-9.30 am or 4:30-5:30 pm, whichever was furthest from the training session for that particular animal.
The experiment therefore included 3 groups.
Data were analyzed by comparing treated groups with aged control using Mann Whitney U tests. In addition, the data were submitted to a two-factor analysis of variance (with age and session as factors, with repeated measures for session).

Where [3] appears, read: 1 mg/kg IP given immediately post-training.
[4] abbreviates: 1 mg/kg IP immediately post-training.
The mark [5] stands for this setting: 10 mg/kg IP given immediately post-training.
Setting [6] is: 10 mg/kg IP immediately post-training.

As to `N[C@@H](C(=O)N1CCCC1)[C@@H](O)c1ccncc1` [Compound A], the “Training latency Day 0 (latency to enter the dark/shock compartment)” value in assay [1] (setting [3]) was found to be 14.26. Further, in assay [1] (setting [4]), the “Testing latency Day 1 (latency to enter the dark/shock compartment)” value is 64.34, the “Testing latency Day 4 (latency to enter the dark/shock compartment)” value stood at 65.52 and the “Testing latency Day 7 (latency to enter the dark/shock compartment)” value is reported as 54.32. For the same compound, the “Training latency Day 0 (latency to enter the dark/shock compartment)” value in assay [1] (setting [5]) was determined as 9.88. In assay [1] (setting [6]), the “Testing latency Day 1 (latency to enter the dark/shock compartment)” value amounted to 82.58, the “Testing latency Day 4 (latency to enter the dark/shock compartment)” value is reported as 58.33 and the “Testing latency Day 7 (latency to enter the dark/shock compartment)” value was found to be 47.87. Further, in assay [1], the “memory for the shock-associated environment” value is on record as “significantly improved memory”.

Turning to `N[C@@H](C(=O)N1CCCCC1)[C@@H](O)c1ccsc1` [Compound B], the “Training latency Day 0 (latency to enter the dark/shock compartment)” value in assay [1] (setting [3]) is 6.58. Besides, in assay [1] (setting [4]), the “Testing latency Day 1 (latency to enter the dark/shock compartment)” value was determined as 95.42, the “Testing latency Day 4 (latency to enter the dark/shock compartment)” value came out at 81 and the “Testing latency Day 7 (latency to enter the dark/shock compartment)” value amounted to 43.55. In addition, the “Training latency Day 0 (latency to enter the dark/shock compartment)” value in assay [1] (setting [5]) stood at 8.43. Further, in assay [1] (setting [6]), the “Testing latency Day 1 (latency to enter the dark/shock compartment)” value is reported as 126.27, the “Testing latency Day 4 (latency to enter the dark/shock compartment)” value was 83.4 and the “Testing latency Day 7 (latency to enter the dark/shock compartment)” value amounted to 56.22. Also, in assay [1], the “memory for the shock-associated environment” value is “significantly improved memory”.

Consider `N[C@@H](C(=O)N1CCCC1)[C@@H](O)c1ccncc1` [Compound C], for which the “escape latency of aged rats over the training period” value in assay [2] (10 mg/kg twice daily for 6 days prior to and during the experiment, compared with aged controls) is “decreased the escape latency”. The “effect on escape latency, pooled data of the last 3 training sessions” value in assay [2] (10 mg/kg twice daily, aged rats versus aged controls) was “statistically significant”. In assay [2] (aged rats, 10 mg/kg p.o. twice daily, Day 7 (1st training day)), the “Mean Escape Latency Day 7” value amounted to 69.9 ± 4.0 s. For the same compound, the “Mean Escape Latency Day 8” value in assay [2] (aged rats, 10 mg/kg p.o. twice daily, Day 8) was determined as 49.3 ± 5.4 s. Moreover, the “Mean Escape Latency Day 9” value in assay [2] (aged rats, 10 mg/kg p.o. twice daily, Day 9) is listed as 41.0 ± 1.8 ⋄ sec. Also, in assay [2] (aged rats, 10 mg/kg p.o. twice daily, Day 10), the “Mean Escape Latency Day 10” value worked out at 28.0 ± 2.2 s. Also, in assay [2] (aged rats, 10 mg/kg p.o. twice daily, Day 11), the “Mean Escape Latency Day 11” value came out at 30.4 ± 3.4 s.

The values above are taken from patent publication US9303021B2, “Methods for treating cognitive disorders using 3-aryl-3-hydroxy-2-amino-propionic acid amides, 3-heteroaryl-3-hydroxy-2-amino-propionic acid amides and related compounds” (Allergan, Inc., priority 2007, dated 2016).
